Test results: ChEMBL document CHEMBL3797140, “Acridin-3,6-dialkyldithiourea hydrochlorides as new photosensitizers for photodynamic therapy of mouse leukemia cells” (Bioorg Med Chem, 2016)

Assays:
L1210 = test: Phototoxicity against mouse L1210 cells assessed as cell viability preincubated for 1 hr followed by 1.05 J/cm2 UV-A irradiation measured after 48 hrs by MTT assay; assay type: functional, cell-based; details: L1210, light or radiation study
[1] = Dark toxicity against mouse L1210 cells assessed as cell viability after 48 hrs by MTT assay; assay type: cell-based
[2] = Dark toxicity against mouse NIH/3T3 cells assessed as cell viability after 48 hrs by MTT assay; assay type: cell-based, NIH3T3
[3] = Phototoxicity against mouse NIH/3T3 cells assessed as cell viability preincubated for 1 hr followed by 1.05 J/cm2 UV-A irradiation measured after 48 hrs by MTT assay; assay type: cell-based; details: NIH3T3, light or radiation study

With `CCNC(=S)Nc1ccc2cc3ccc(NC(=S)NCC)cc3nc2c1` the IC50 (L1210) was 0.9 µM, the IC50 at 48 h [1] was 12 µM and the IC50 at 48 h [2] was 40.2 µM. The IC50 [3] was 2.8 µM.
